The target of this test is Cyclin-dependent kinase inhibitor 1 (Homo sapiens, UniProt P38936). Put plainly: Inhibition of p21 (unknown origin)-induced transcription in human HT1080 p21-9-CMV-GFP cells after 3 days by fluorescence assay.

One may read the IC50 as the point on the concentration scale where inhibition reaches its midpoint. A higher IC50 goes with lower potency.

Sequence of Cyclin-dependent kinase inhibitor 1 (P38936 whole entry): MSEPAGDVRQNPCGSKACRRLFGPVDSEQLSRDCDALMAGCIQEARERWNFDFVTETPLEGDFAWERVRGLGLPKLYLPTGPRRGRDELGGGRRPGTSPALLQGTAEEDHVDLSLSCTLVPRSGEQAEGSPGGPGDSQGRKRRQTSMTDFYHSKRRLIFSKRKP

Regarding `N#Cc1ccc2ncnc(NCCc3ccccc3)c2c1`, the IC50 worked out at 640 nM.
